# Data from patent publication US20220347173A1, “METHODS OF TREATING LIVER FIBROSIS USING CALPAIN INHIBITORS” (Blade Therapeutics, Inc., priority 2018, published 2022).
# Key:
# [1] = tested on: CDAHFD rat model of non-alcoholic steatohepatitis (NASH); test: Rat choline-deficient, amino acid-defined high fat diet (CDAHFD) model of NASH; assay type: in vivo, Male Wistar rats; conditions: for mRNA expression of CTGF: MC BID 42.89±32.82; for mRNA expression of IL-6: MC BID 54.89±47.23; for mRNA expression of Colla1: MC BID 106.6±59.97; for SMA (Acta2) protein expression: MC QD 5.82±0.67
# From the text: A rat choline-deficient, amino acid-defined high fat diet (CDAHFD) model of non-alcoholic steatohepatitis (NASH) reproduces key features of the human disease. This model was used to examine the anti-fibrotic effects of Compound 405 (shown in Table 1a) in the CDAHFD rat model.
# Male Wistar rats (Charles River Laboratories) were randomly assigned to receive the following treatments: Group 1 (n=8) served as a healthy control and were fed normal chow for 12 weeks; Group 2 (n=8) served as a disease control and was fed a CDAHFD and received once daily (QD) oral gavage treatment with vehicle Methylcellulose (MC) beginning at week 5 post CDAHFD, Group 3 (n=8) served as a disease control and was fed a CDAHFD and received twice daily (BID) oral gavage treatment with vehicle Methylcellulose (MC) beginning at week 5 post CDAHFD, Group 4 (n=8) was fed a CDAHFD and received QD oral gavage treatment with Compound 405 (200 mg/kg) beginning at week 5 post CDAHFD, Group 5 (n=8) was fed a CDAHFD and received BID oral gavage treatment with Compound 405 (100 mg/kg) beginning at week 5 post CDAHFD, Group 6 (n=8) was fed a CDAHFD and received QD oral gavage treatment with Compound 405 (60 mg/kg) beginning at week 5 post CDAHFD, Group 7 (n=8) was fed a CDAHFD and received BID oral gavage treatment with Compound 405 (30 mg/kg) beginning at week 5 post CDAHFD. At the end of the study (12 weeks), liver tissue and serum was collected for further analysis. A part of the liver was used for histological analysis and the spare liver from each individual animal was snap frozen on liquid nitrogen and stored at −80° C. Serum was collected to measure ALT,
# [2] = tested on: CCl4-induced liver fibrosis in male BALB/c mice; test: Carbon Tetrachloride (CCl4)-induced liver fibrosis model; assay type: in vivo
# Method: This study is performed to evaluate the effects of calpain compounds disclosed herein on a Carbon Tetrachloride (CCl4)-induced liver fibrosis in male BALB/c mice. Liver fibrosis is induced in mice by the administration of CCl4 twice weekly for four weeks. CCl4 administered animals are treated with compounds disclosed herein in a therapeutic treatment mode on day 14 post initiation of CCl4 injection and continued until study termination. Study is terminated 96 hours following the last CCl4 administration, i.e., on day 32 post CCl4 administration. Compounds described herein show an improvement in fibrosis score and no effect on liver enzymes, liver weight or body weight compared to vehicle.
# Carbon tetrachloride (CCl4) is purchased from Sigma (cat #319961). To induce liver fibrosis, mice are administered CCl4 (1:1, CCl4:mineral oil) via intraperitoneal (ip) injection at a dose volume of 1 ml/kg body weight. On every CCl4 administration day animals are weighed prior to administration of CCl4 and the dose volume is adjusted as per body weight of individual animal. Animals are administered CCl4: mineral oil twice weekly i.e. every Monday and Thursday for four weeks, 2 hours post morning treatment. The final CCl4 injection is received on day 28 post first CCl4 injection.
# Animals are bled via sub-mandibular route on day-4 prior to study initiation, and on day 13, post CCl4 administration, a day before the therapeutic treatment began. Plasma is prepared and stored at −20° C. until it is analyzed. Upon study termination day 32 post CCl4 administration, animals are bled via cardiac puncture. Serum is prepared and stored at −20° C. until shipped to contract company for liver enzyme panel analysis. […]
# The procedures described above were followed using Compound 405 as a test compound administered at 30 mg/kg BID or 100 mg/kg BID. Body weights were measured prior to every CCl4 administration. […] Average liver weight of 2.24+/−0.06 g was recorded in animals treated with vehicle compared to no CCl4 administered control mice 1.45+/−0.03 g (p<0.0001).
# [3] = BID oral 100 mg/kg and 30 mg/kg, serum
# [4] = QD oral 200 mg/kg and 60 mg/kg, serum
smiles,measurement,setting,value
Cc1nc(-c2ccccc2F)c(C(=O)NC(Cc2ccccc2)C(=O)C(N)=O)o1 (centres unmarked) [Compound 405],mRNA expression of CTGF,"[1]; 30 mg/kg BID, p<0.01",3.55±1.35
same,mRNA expression of IL-6,"[1]; 30 mg/kg BID, p<0.01",2.80±1.35
same,mRNA expression of SMA,"[1]; 30 mg/kg BID, MC BID 73.65±37.51, p<0.01",11.46±2.02
same,mRNA expression of Colla1,"[1]; 30 mg/kg BID, p<0.01",13.37±2.53
same,Liver Weight (as a percent of total weight),"[1]; 30 mg/kg BID, p<0.05",6.6 ± 0.3%
same,fibrosis as measured by CPA,[1]; 60 mg/kg QD,did not significantly decrease
same,fibrosis as measured by hydroxyproline,[1]; 60 mg/kg QD,did not significantly decrease
same,SMA (Acta2) protein expression,"[1]; 60 mg/kg QD, p<0.01",2.40±1.16%
same,collagen deposition,[1]; 100 mg/kg BID,reduced
same,SMA (Acta2) protein expression in livers,"[1]; 100 mg/kg BID, MC BID 7.08±1.36%, p<0.01",2.01±1.14%
same,mRNA expression of CTGF,"[1]; 100 mg/kg BID, p<0.05",3.84±2.24
same,mRNA expression of IL-6,"[1]; 100 mg/kg BID, p<0.01",15.81±9.01
same,mRNA expression of Colla1,"[1]; 100 mg/kg BID, p<0.01",35.76±33.84
same,hydroxyproline,"[1]; 100 mg/kg BID, MC BID 706.9±173.5 nmol/L, p<0.05",458.2 ± 146 nmol/L
same,Liver Weight (as a percent of total weight),"[1]; 100 mg/kg BID, p<0.05",6.6 ± 0.8%
same,SMA (Acta2) protein expression,"[1]; 200 mg/kg QD, p<0.01",1.7±0.58%
same,collagen proportional area (CPA),"[1]; 200 mg/kg QD, MC QD 11.28±3.50%, liver at 12 weeks",6.08±1.69%
same,hydroxyproline,"[1]; 200 mg/kg QD, MC QD 731.3±165.9 nmol/L, p<0.05",495.1 ± 113.9 nmol/L
same,pro-fibrotic or inflammatory gene expression (mRNA),[1]; 200 mg/kg or 60 mg/kg QD,did not significantly decrease
same,spleen weight (as a percent of total weight),[1]; BID oral 100 mg/kg and 30 mg/kg,did not affect
same,body weight,"[1]; BID oral 100 mg/kg and 30 mg/kg, weeks 5-12",did not affect
same,albumin levels,[1]; [3],did not alter
same,"level of blood transaminases (U/L) including ALT, AST, and ALP vs MC BID",[1]; [3],did not change
same,Total bilirubin,"[1]; BID study, serum",did not change significantly
same,expression of Calpain1,[1]; BID treatment,did not change
same,expression of Calpain 2,[1]; BID treatment,did not change
same,liver fat content (histological analysis of steatosis),[1]; BID treatment,did not change
same,body weight relative to vehicle (methyl cellulose) control,"[1]; QD oral 200 mg/kg and 60 mg/kg, weeks 5-12",did not alter
same,albumin levels,[1]; [4],did not change
same,"level of blood transaminases (ALT, AST, ALP) vs MC QD",[1]; [4],did not alter
same,Total bilirubin,"[1]; QD study, serum",did not change significantly
same,liver fat content (histological analysis of steatosis),[1]; QD treatment,did not change
same,"Fibrosis score (Picrosirius Red-stained liver sections, polarized light)","[2]; CCl4-treated mice, oral 30 mg/kg BID or 100 mg/kg BID from day 14, day 32",statistically significant reduction
same,length and thickness of the collagen fibers (PSR-stained liver sections),"[2]; CCl4-treated mice, oral BID from day 14",decrease
same,fibrosis,"[2]; dosed therapeutically at 100 mg/kg, twice a day",significantly reduced
